Assay [1] addresses T1, biotin-labeled DsbA (Escherichia coli, UniProt P0AEG4).
T1 construct: purchased abcam
T1 sequence (P0AEG4 20-208): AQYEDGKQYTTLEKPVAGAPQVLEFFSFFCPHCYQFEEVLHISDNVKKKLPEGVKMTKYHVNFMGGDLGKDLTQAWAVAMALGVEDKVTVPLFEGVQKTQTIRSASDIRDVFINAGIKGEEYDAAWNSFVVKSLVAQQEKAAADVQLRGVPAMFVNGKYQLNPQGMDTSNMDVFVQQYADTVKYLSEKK
The experiment in a line: Peptide microarray binding of biotin-labeled DsbA, Cy5-streptavidin fluorescence detection. To be noted: fluorescent signal intensity measured by peptide microarray. From the text: Briefly, the peptide array was synthesized by light-directed array synthesis in a Roche NimbleGen Maskless Array Synthesizer (MAS) using an amino-functionalized substrate as previously reported (Forsström, et al., “Proteome-wide Epitope Mapping of Antibodies Using Ultra-dense Peptide Arrays,” Molecular & Cellular Proteomics 13:1585-1597 (2014) and Lyamichev, et al., “Stepwise Evolution Improves Identification of Diverse Peptides Binding to a Protein Target,” Nature Scientific Reports 7:12116 (2017), both of which are incorporated herein by reference in their entireties). L-amino acids were synthesized by Orgentis Chemicals GmbH. Custom amino acids were purchased from Lifetein. Cy5™-streptavidin was purchased from GE Healthcare, Blocker™ BSA (10%) in PBS from ThermoFisher, and SecureSeal™ hybridization chambers from Grace Bio-Labs. Final side chain deprotection was performed by incubating the microarray in 60 mM EDT and 25 mM TIPS in 95% TFA (v/v) for 30 min at room temperature. The microarray was then washed twice in methanol for 30 seconds, once in 1×TBST for 1 min, twice in TBS for 30 seconds, and then spun dry in a microcentrifuge equipped with an array holder. […] Here, 2.6 μL biotin-labeled DsbA (1.5 mg/mL, abcam) was incubated on the array in 49 μL binding buffer containing 100 mM HEPES (pH 7.3), 1% BSA, 250 mM NaCl, 20 mM L-glutathione-reduced, and 0.2 mM L-glutathione-oxidized in a hybridization chamber overnight at 4° C. After incubation, arrays were washed in water for 15 seconds placed directly into a streptavidin-Cy5 detection bath. Positive binding to DsbA was determined by the detection of Streptavidin-Cy5. Streptavidin-Cy5 binding to all arrays was performed with 20 μL streptavidin-Cy5 (1 μg/mL) in 30 mL binding buffer containing 10 mM Tris-HCl (pH 7.4), 1% Casein, 0.05% Tween-20 in a 30 mL pap jar for 1 hour at room temperature. After incubation, arrays were washed in 20 mM Tris-HCl (pH 7.8), 0.2 M NaCl, 1% SDS for 30 seconds followed by a 30 seconds wash in water. The arrays were then dried by spinning in a microcentrifuge equipped with an array holder. Data was analyzed by measuring Cy5 fluorescence intensity of the arrays and extracting data, as previously described in Lyamichev, et al. (2017).
To narrow the number of possible 15-mer peptides in both libraries down to approximately 3 million peptides, a calculation was run to select for the maximum diversity of 6mer peptide sequences. Each 15-mer sequence was replicated two times.

Assay [2] has as its target T1, biotin-labeled DsbA. Kind of assay: Biacore kinetic analysis of peptide binding to immobilized biotin-labeled DsbA. Here is the method: The discovered and incrementally optimized novel DsbA-binding peptides were subject to kinetic characterization. Kinetic analysis of the interaction between the discovered peptides and DsbA was performed using a Biacore XI00. Biotin-labeled DsbA (1 uM) was immobilized on streptavidin coated chip (GE Healthcare) to a target level of 1,000 response units in HBS-P+. […] Fourteen dilutions of peptide from 5000 nM to 0.6 nM in HBS-P+ were flowed over the DsbA coated chip in triplicate with a contact time of 120 seconds and a dissociation time of 600 seconds. […] All peptides were amidated on the C-terminus.
Background: SPR reads the build-up and loss of mass on a sensor chip optically.

No end group written: not given here.

By koff is commonly meant a measure of how fast the partners let go of each other. In general, kon refers to a measure of how fast the partners come together. A low value points to slower complex formation. As for DFWHGDTCKVTQFDQ-NH2, the “SIGNAL INTENSITY” value on biotin-labeled DsbA [1] came out at 1750. On biotin-labeled DsbA [2], this substance registered a koff of 0.0271 s⁻¹ and a kon of 130000 M⁻¹ s⁻¹.
Regarding DFWHGEQCKVTQFDQ-NH2, at biotin-labeled DsbA [1], the “SIGNAL INTENSITY” value came to 4590. For the same substance, on biotin-labeled DsbA [2], the koff amounted to 0.0139 s⁻¹ and the kon was 259000 M⁻¹ s⁻¹.
As to DFWHGETCKVTQFDQ-NH2, the “SIGNAL INTENSITY” value on biotin-labeled DsbA [1] is 1801. Also, on biotin-labeled DsbA [2], the off-rate constant (koff) came to 0.0185 s⁻¹ and the on-rate constant (kon) turned out to be 220000 M⁻¹ s⁻¹.
As for HNWAAQCLKDQAKL-NH2, the “SIGNAL INTENSITY” value on biotin-labeled DsbA [1] stood at 1759. On biotin-labeled DsbA [2], this substance registered an off-rate (koff) of 0.0448 s⁻¹ and a kon of 509000 M⁻¹ s⁻¹.
Turning to HNWAAQCLNPDQAKL-NH2, the “SIGNAL INTENSITY” value on biotin-labeled DsbA [1] was found to be 2640. On biotin-labeled DsbA [2], this substance registered a koff of 0.0292 s⁻¹ and a kon of 510000 M⁻¹ s⁻¹.
Taken in the same sequence, the figures for NDYQYKGQQCLDPKY-NH2 were 3623, 0.0246 s⁻¹ and 515000 M⁻¹ s⁻¹.
Consider PSPWATCDF-NH2, for which the “SIGNAL INTENSITY” value at biotin-labeled DsbA [1] was 82.
Still for that read-out and setting: the value for SIIGMCYKKDPS-NH2 was 1365.
The same measure, in the same setting: to VIGQCLKN-NH2 belongs 588; to VILGQCLKQ-NH2, 965.
As to VIVGQCLKK-NH2, the “SIGNAL INTENSITY” value at biotin-labeled DsbA [1] was 282.
On the same count and under the same terms, the value for WQYENWAITKWQCVK-NH2 was 1427.
Consider YVYGMCWKDYTDTDK-NH2, for which the “SIGNAL INTENSITY” value at biotin-labeled DsbA [1] came to 2114. Moreover, on biotin-labeled DsbA [2], the koff is 0.0627 s⁻¹ and the kon came out at 538000 M⁻¹ s⁻¹.
With YVYGMCWKDYTTDK-NH2, the “SIGNAL INTENSITY” value at biotin-labeled DsbA [1] is on record as 2297. At biotin-labeled DsbA [2], this substance returned a koff of 0.057 s⁻¹ and a kon of 728000 M⁻¹ s⁻¹.

The values above are taken from patent US12595591B2, “Peptide libraries having enhanced subsequence diversity and methods for use thereof” (ROCHE […], INC., priority 2019, dated 2026).
